Assay results taken from US7419984B2, “Pyrimidines and uses thereof” (Cell Therapeutics, Inc., priority 2002, dated 2008).

Each molecule was assayed against T1, human LPAAT-β (Homo sapiens, UniProt O15120) (assay: LPAAT-β cell-free assay). Conditions: Sf9 cell membrane overexpressing recombinant LPAAT-β.
T1 construct: the full-length human LPAAT-β cDNA was amplified by PCR; poly-histidine tag (N); made in house; host or cells: Sf9 insect cells (baculovirus, pFastBac HTc); the membrane fraction was used as the enzyme
T1 sequence (O15120 24-278): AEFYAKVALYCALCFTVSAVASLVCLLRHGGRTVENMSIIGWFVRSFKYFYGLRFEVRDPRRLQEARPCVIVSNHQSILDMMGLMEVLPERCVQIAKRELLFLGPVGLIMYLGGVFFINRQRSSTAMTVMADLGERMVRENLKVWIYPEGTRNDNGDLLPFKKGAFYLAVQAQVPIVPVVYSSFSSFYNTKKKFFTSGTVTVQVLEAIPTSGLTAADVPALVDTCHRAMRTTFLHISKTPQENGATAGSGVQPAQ
Format: biochemical
How it was run: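 Membranes from Sf9 cells expressing His/myc-tagged full-length human LPAAT-β were used in HEPES-saline pH 7.5 with 1 mg/ml BSA. Compound was added from a 200 μM DMSO stock, and reaction with 18:1-CoA and sn-1-18:1 lysoPA (1 mM stocks) ran 25 min at RT. Released CoA was detected with DTNB at 405 nm; a radiometric variant used 200 μM [14C]18:1-CoA and 200 μM lysoPA.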
In the case of `Cc1ccc(Cl)cc1-c1cc(Nc2ccc3[nH]nnc3c2)nc(N)n1` [Example 125, N*4*-(1H-Benzotriazol-5-yl)-6-(5-chloro-2-methylphenyl)pyrimidine-2,4-diamine], the IC50 is reported as 90 nM. With `Cc1ccc(Cl)cc1-c1cc(Nc2ccc(C(F)(F)F)nc2)nc(N)n1` [Example 126, 6-(5-chloro-2-methylphenyl)-N*4*-(6-trifluoromethylpyridin-3-yl)pyrimidine-2,4-diamine] the IC50 was 500 nM. Molecule `CCOc1ccc(Br)cc1-c1cc(Nc2ccc(C(C)=O)cc2)nc(N)n1` [Example 127, 1-{4-[2-amino-6-(5-bromo-2-ethoxyphenyl)pyrimidin-4-ylamino]phenyl}ethanone] has an IC50 of 34 nM. `CCOc1ccc(Br)cc1-c1cc(Nc2ccc(C(F)(F)F)nc2)nc(N)n1` [Example 128, 6-(5-bromo-2-ethoxyphenyl)-N*4*-(6-trifluoromethylpyridin-3-yl)-pyrimidine-2,4-diamine] gave an IC50 of 190 nM. For `CCOc1ccc(Br)cc1-c1cc(Nc2ccc(C(O)C(F)(F)F)cc2)nc(N)n1` (stereo not shown) [Example 129, 1-{4-[2-Amino-6-(5-bromo-2-ethoxy-phenyl)-pyrimidin4-ylamino]-phenyl}-2,2,2-trifluoro-ethanol], the IC50 was 14 nM. `CCOc1ccc(Br)cc1-c1cc(Nc2ccc(C(C)=NO)cc2)nc(N)n1` [Example 130, 1-{4-[2-Amino-6-(5-bromo-2-ethoxy-phenyl)-pyrimidin4-ylamino]-phenyl}-ethanone-oxime] showed an IC50 of 84 nM. In the case of `CCOc1ccc(Br)cc1-c1cc(Nc2ccc(C(=O)C(F)(F)F)cc2)nc(N)n1` [Example 131, 1-{4-[2-Amino-6-(5-bromo-2-ethoxy-phenyl)-pyrimidin-4-ylamino]-phenyl}-2,2,2-trifluoro-ethanone], the IC50 is reported as 12 nM. With `CCOc1ccc(Br)cc1-c1cc(Nc2ccc(C)c(C)c2)nc(N)n1` [Example 132, 6-(5-Bromo-2-ethoxy-phenyl)-N*4*-(3,4-dimethyl-phenyl)-pyrimidine-2,4-diamine] the IC50 was 140 nM. Work on `CCOc1ccc(Br)cc1-c1cc(Nc2ccc([N+](=O)[O-])cc2)nc(N)n1` [Example 133, 6-(5-Bromo-2-ethoxy-phenyl)-N*4*-(4-nitro-phenyl)-pyrimidine-2,4-diamine] yielded an IC50 of 15 nM. `CCOc1ccc(Br)cc1-c1cc(Nc2ccc(C(C)O)cc2)nc(N)n1` (stereo not shown) [Example 134] showed an IC50 of 110 nM. For `CCCOc1ccc(Br)cc1-c1cc(Nc2ccc(Cl)cc2)nc(N)n1` [Example 135, 6-(5-Bromo-2-propoxy-phenyl)-N*4*-(4-chloro-phenyl)-pyrimidine-2,4-diamine], the IC50 was 8 nM. In the case of `CC(C)Oc1ccc(Br)cc1-c1cc(Nc2ccc(Cl)cc2)nc(N)n1` [Example 136, 6-(5-Bromo-2-isopropoxy-phenyl)-N*4*-(4-chloro-phenyl)-pyrimidine-2,4-diamine], the IC50 is reported as 170 nM. Work on `CCOc1ccc(Br)cc1-c1cc(Nc2ccc(C(C)OC)cc2)nc(N)n1` (stereo not shown) [Example 137, 6-(5-Bromo-2-ethoxy-phenyl)-N*4*-[4-(1-methoxy-ethyl)-phenyl]-pyrimidin-2,4-diamine] yielded an IC50 of 260 nM. Work on `CCOc1ccc(Br)cc1-c1cc(Nc2cccc(C(N)=O)c2)nc(N)n1` [Example 138, 3-[2-Amino-6-(5-Bromo-2-ethoxy-phenyl)-pyrimidin-4yl-amino]-benzamide] yielded an IC50 of 950 nM. `CC(=O)c1ccc(Nc2cc(-c3cccc(Cl)c3)nc(N)n2)cc1` [Example 139, 1-{4-[2-Amino-6-(3-chloro-phenyl)-pyrimidin-4-ylamino]-phenyl}-ethanone] gave an IC50 of 340 nM. Molecule `CCOc1ccc(I)cc1-c1cc(Nc2ccc(N=[N+]=[N-])cc2)nc(N)n1` [Example 140, N*4*-{4-Azido-phenyl)-6-(2-ethoxy-5-iodo-phenyl)-pyrimidine-2,4-diamine] has an IC50 of 100 nM. With `CC(C)Oc1ccc(Br)cc1-c1cc(Nc2ccc(CCO)cc2)nc(N)n1` [Example 141, 2-{4-[2-Amino-6-(5-bromo-2-isopropoxy-phenyl)-pyrimidin-4-ylamino]-phenyl}-ethanol] the IC50 was 390 nM. Work on `COc1ccc(Br)cc1-c1cc(Nc2ccc(Cl)cc2)nc(N)n1` [Example 142, 6-(5-Bromo-2-methoxy-phenyl)-N*4*-(4-chloro-phenyl)-pyrimidine-2,4-diamine] yielded an IC50 of 18 nM. `COCCOc1ccc(Br)cc1-c1cc(Nc2ccc(Cl)cc2)nc(N)n1` [Example 143, 6-[5-Bromo-2-(2-methoxy-ethoxy)-phenyl]-N*4*-(4-chloro-phenyl)-pyrimidine-2,4-diamine] was tested, and the IC50 was 22 nM. Work on `CCOc1ccc(Br)cc1-c1cc(Nc2cnc3ccccc3c2)nc(N)n1` [Example 144, 6-(5-Bromo-2-ethoxy-phenyl)-N*4*-quinolin-3-yl-pyrimidine-2,4-diamine] yielded an IC50 of 460 nM. With `CCCCCCOc1ccc(Br)cc1-c1cc(Nc2ccc(Cl)cc2)nc(N)n1` [Example 145, 6-(5-Bromo-2-hexyloxy-phenyl)-N*4*-(4-chloro-phenyl)-pyrimidine-2,4-diamine] the IC50 was 5 nM. `Nc1nc(Nc2ccc(Cl)cc2)cc(-c2cc(Br)ccc2OCc2ccccc2)n1` [Example 146, 6-(2-Benzyloxy-5-bromo-phenyl)-N*4*-(4-chloro-phenyl)-pyrimidine-2,4-diamine] showed an IC50 of 3 nM. Work on `CC(=NO)c1ccc(Nc2cc(-c3cc(Cl)cc(Cl)c3Cl)nc(N)n2)cc1` [Example 147, 1-{4-[2-Amino-6-(2,3,5-trichloro-phenyl)-pyrimidin-4-ylamino]-phenyl}-ethanone oxime] yielded an IC50 of 390 nM. `CCCCOc1ccc(Br)cc1-c1cc(Nc2ccc(Cl)cc2)nc(N)n1` [Example 148, 6-(5-Bromo-2-butoxy-phenyl)-N*4*-(4-chloro-phenyl)-pyrimidine-2,4-diamine] was tested, and the IC50 was 5 nM. Molecule `Nc1nc(Nc2ccc(Cl)cc2)cc(-c2cc(Br)ccc2OCCN2CCOCC2)n1` [Example 149, 6-[5-Bromo-2-(2-morpholin4-yl-ethoxy)-phenyl]-N*4*-(4-chloro-phenyl)-pyrimidine-2,4-diamine] has an IC50 of 71 nM. `COc1ccc(Br)cc1-c1cc(Nc2ccc(C(F)(F)F)cc2)nc(N)n1` [Example 150, 6-(5-Bromo-2-methoxy-phenyl)-N*4*-(4-trifluoromethyl-phenyl)-pyrimidine-2,4-diamine] was tested, and the IC50 was 100 nM. `COc1ccc(Br)cc1-c1cc(Nc2ccc(CCO)cc2)nc(N)n1` [Example 151, 2-{4-[2-Amino-6-(5-bromo-2-methoxy-phenyl)-pyrimidin-4-ylamino]-phenyl}-ethanol] gave an IC50 of 55 nM. `Nc1nc(Nc2ccc(Cl)cc2)cc(-c2ccccc2Oc2ccccc2)n1` [Example 152, N*4*-(4-Chloro-phenyl)-6-(2-phenoxy-phenyl)-pyrimidin-2,4-diamine] was tested, and the IC50 was 240 nM. In the case of `Nc1nc(Nc2ccc(C(F)(F)F)cc2)cc(-c2cc(Br)ccc2OCc2ccccc2)n1` [Example 153, 6-(2-Benzyloxy-5-bromo-phenyl)-N*4*-(4-trifluoromethyl-phenyl)-pyrimidine-2,4-diamine], the IC50 is reported as 6 nM. Molecule `CC(=NO)c1ccc(Nc2cc(-c3cc(Cl)ccc3Cl)nc(N)n2)cc1` [Example 154, 1-{4-[2-Amino-6-(2,5-dichloro-phenyl)-pyrimidin-4-yl-amino]-phenyl}-ethanone oxime] has an IC50 of 98 nM. `Nc1nc(Nc2ccc(Cl)cc2)cc(-c2cc(Cl)ccc2OCc2ccccc2)n1` [Example 155, 6-(2-Benzyloxy-5-chloro-phenyl)-N*4*-(4-chloro-phenyl)-pyrimidine-2,4-diamine] was tested, and the IC50 was 4 nM. `CN(C)CCCOc1ccc(Br)cc1-c1cc(Nc2ccc(Cl)cc2)nc(N)n1` [Example 156, 6-[5-Bromo-2-(3-dimethylamino-propoxy)-phenyl]-N*4*-(4-chloro-phenyl)-pyrimidine-2,4-diamine] was tested, and the IC50 was 1400 nM. In the case of `Nc1nc(Nc2ccc(CCO)cc2)cc(-c2cc(Cl)ccc2OCc2ccccc2)n1` [Example 158, 2-[4-{2-Amino-6-(2-benzyloxy-5-chloro-phenyl)-pyrimidin4-ylamino]-phenyl}-ethanol], the IC50 is reported as 16 nM. For `CCOc1ccc(Br)cc1-c1cc(Nc2ccc(B(O)O)cc2)nc(N)n1` [Example 159, 4-[2-Amino-6-(5-bromo-2-ethoxy-phenyl)-pyrimidin-4-ylamino]-phenyl-boronic acid], the IC50 was 200 nM. `COc1ccc(Br)cc1-c1cc(Nc2ccc(C#N)cc2)nc(N)n1` [Example 160, 4-[2-Amino-6-(5-bromo-2-methoxy-phenyl)-pyrimidin4-ylamino]-benzonitrile] was tested, and the IC50 was 38 nM. With `COc1ccc(Br)cc1-c1cc(Nc2ccc([N+](=O)[O-])cc2)nc(N)n1` [Example 161, 6-(5-Bromo-2-methoxy-phenyl)-N*4*-(4-nitro-phenyl)-pyrimidine-2,4-diamine] the IC50 was 14 nM. With `COc1ccc(Br)cc1-c1cc(Nc2ccc(Br)cc2)nc(N)n1` [Example 162, 6-(5-Bromo-2-methoxy-phenyl)-N*4*-(4-bromo-phenyl)-pyrimidine-2,4-diamine] the IC50 was 36 nM. `CCc1ccc(Cl)cc1-c1cc(Nc2ccc(Br)cc2)nc(N)n1` [Example 163, N*4*-(4-Bromo-phenyl)-6-(5-chloro-2-ethyl-phenyl)-pyrimidine-2,4-diamine] showed an IC50 of 310 nM. In the case of `CCc1ccc(Cl)cc1-c1cc(Nc2ccc(C(F)(F)F)cc2)nc(N)n1` [Example 164, 6-(5-Chloro-2-ethyl-phenyl)-N*4*-(4-trifluoromethyl-phenyl)-pyrimidine-2,4-diamine], the IC50 is reported as 670 nM. `Nc1nc(Nc2ccc(Cl)cc2)cc(-c2cc(Br)ccc2OCc2ccc(Cl)cc2)n1` [Example 165, 6-[5-Bromo-2-(4-chloro-benzyloxy)-phenyl]-N*4*-(4-chloro-phenyl)-pyrimidine-2,4-diamine] gave an IC50 of 3 nM.
